What was measured:
[1] = system: Bacteroides fragilis; test: Expected efficacy of antibiotic agents; details: expected efficacy against Bacteroides fragilis
[2] = system: Clostridium difficile; test: Expected efficacy of antibiotic agents; details: expected efficacy against Clostridium difficile
[3] = system: Clostridium perfringens; details: expected efficacy against Clostridium perfringens
[4] = system: Chlamydia pneumoniae; test: Expected efficacy of antibiotic agents; details: expected efficacy against Chlamydia pneumoniae
[5] = system: Chlamydia psittaci; details: expected efficacy against Chlamydia psittaci
[6] = system: Chlamydia trachomatis; test: Expected efficacy of antibiotic agents; details: expected efficacy against Chlamydia trachomatis
[7] = system: Mycoplasma pneumoniae; test: Expected efficacy of antibiotic agents; details: expected efficacy against Mycoplasma pneumoniae
[8] = system: Acinetobacter baumannii; test: Expected efficacy of antibiotic agents; details: expected efficacy against Acinetobacter baumannii
[9] = system: Acinetobacter calcoaceticus; test: Expected efficacy of antibiotic agents; details: expected efficacy against Acinetobacter calcoaceticus
[10] = system: Acinetobacter lwoffii; test: Expected efficacy of antibiotic agents; details: expected efficacy against Acinetobacter lwoffii
[11] = system: Bartonella bacilliformis; test: Expected efficacy of antibiotic agents; details: expected efficacy against Bartonella bacilliformis
[12] = system: Bordetella pertussis; test: Expected efficacy of antibiotic agents; details: expected efficacy against Bordetella pertussis
[13] = system: Brucella species; details: expected efficacy against Brucella species
[14] = system: Campylobacter jejuni; test: Expected efficacy of antibiotic agents; details: expected efficacy against Campylobacter jejuni
[15] = system: Citrobacter diversus; test: Expected efficacy of antibiotic agents; details: expected efficacy against Citrobacter diversus
[16] = system: Citrobacter freundii; test: Expected efficacy of antibiotic agents; details: expected efficacy against Citrobacter freundii
[17] = system: Enterobacter aerogenes; test: Expected efficacy of antibiotic agents; details: expected efficacy against Enterobacter aerogenes
[18] = system: Enterobacter cloacae; test: Expected efficacy of antibiotic agents; details: expected efficacy against Enterobacter cloacae
[19] = system: Enterobacter sakazakii; test: Expected efficacy of antibiotic agents; details: expected efficacy against Enterobacter sakazakii
[20] = system: Escherichia coli; test: Expected efficacy of antibiotic agents; details: expected efficacy against Escherichia coli
[21] = system: Francisella tularensis; details: expected efficacy against Francisella tularensis
[22] = system: Haemophilus influenzae; test: Expected efficacy of antibiotic agents; details: expected efficacy against Haemophilus influenzae
[23] = system: Klebsiella (Calymmatobacterium) granulomatis; test: Expected efficacy of antibiotic agents; details: expected efficacy against Klebsiella (Calymmatobacterium) granulomatis
[24] = system: Klebsiella oxytoca; test: Expected efficacy of antibiotic agents; details: expected efficacy against Klebsiella oxytoca
[25] = system: Klebsiella pneumoniae; test: Expected efficacy of antibiotic agents; details: expected efficacy against Klebsiella pneumoniae
[26] = system: Legionella pneumophila; details: expected efficacy against Legionella pneumophila
[27] = system: Moraxella catarrhalis; test: Expected efficacy of antibiotic agents; details: expected efficacy against Moraxella catarrhalis
[28] = system: Morganella morganii; test: Expected efficacy of antibiotic agents; details: expected efficacy against Morganella morganii
[29] = system: Neisseria meningitidis; test: Expected efficacy of antibiotic agents; details: expected efficacy against Neisseria meningitidis
[30] = system: Proteus mirabilis; test: Expected efficacy of antibiotic agents; details: expected efficacy against Proteus mirabilis
[31] = system: Proteus vulgaris; test: Expected efficacy of antibiotic agents; details: expected efficacy against Proteus vulgaris
[32] = system: Providencia rettgeri; test: Expected efficacy of antibiotic agents; details: expected efficacy against Providencia rettgeri
[33] = system: Providencia stuartii; test: Expected efficacy of antibiotic agents; details: expected efficacy against Providencia stuartii
[34] = system: Pseudomonas aeruginosa; test: Expected efficacy of antibiotic agents; details: expected efficacy against Pseudomonas aeruginosa
[35] = system: Pseudomonas fluorescens; test: Expected efficacy of antibiotic agents; details: expected efficacy against Pseudomonas fluorescens
[36] = system: Rickettsiae; details: expected efficacy against Rickettsiae
[37] = system: Serratia marcescens; test: Expected efficacy of antibiotic agents; details: expected efficacy against Serratia marcescens
[38] = system: Vibrio cholerae; test: Expected efficacy of antibiotic agents; details: expected efficacy against Vibrio cholerae
[39] = system: Corynebacterium jeikeium; test: Expected efficacy of antibiotic agents; details: expected efficacy against Corynebacterium jeikeium
[40] = system: Enterococcus faecalis; test: Expected efficacy of antibiotic agents; details: expected efficacy against Enterococcus faecalis
[41] = system: Enterococcus faecium; test: Expected efficacy of antibiotic agents; details: expected efficacy against Enterococcus faecium
[42] = system: Methicillin resistant staph aureus (MRSA); test: Expected efficacy of antibiotic agents; details: expected efficacy against Methicillin resistant staph aureus (MRSA)
[43] = system: Staphylococcus aureus (MSSA); test: Expected efficacy of antibiotic agents; details: expected efficacy against Staphylococcus aureus (MSSA)
[44] = system: Staphylococcus epidermidis; test: Expected efficacy of antibiotic agents; details: expected efficacy against Staphylococcus epidermidis
[45] = system: Streptococcus agalactiae; test: Expected efficacy of antibiotic agents; details: expected efficacy against Streptococcus agalactiae
[46] = system: Streptococcus pneumoniae; test: Expected efficacy of antibiotic agents; details: expected efficacy against Streptococcus pneumoniae
[47] = system: Streptococcus pyogenes; test: Expected efficacy of antibiotic agents; details: expected efficacy against Streptococcus pyogenes
[48] = system: Haemophilus ducreyi; test: Expected efficacy of antibiotic agents; details: expected efficacy against Haemophilus ducreyi
[49] = system: Neisseria gonorrhoeae; test: Expected efficacy of antibiotic agents; details: expected efficacy against Neisseria gonorrhoeae
[50] = system: Salmonella typhi; test: Expected efficacy of antibiotic agents; details: expected efficacy against Salmonella typhi
[51] = system: Shigella boydii; test: Expected efficacy of antibiotic agents; details: expected efficacy against Shigella boydii
[52] = system: Shigella dysenteriae; test: Expected efficacy of antibiotic agents; details: expected efficacy against Shigella dysenteriae
[53] = system: Shigella flexneri; test: Expected efficacy of antibiotic agents; details: expected efficacy against Shigella flexneri
[54] = system: Shigella sonnei; test: Expected efficacy of antibiotic agents; details: expected efficacy against Shigella sonnei
[55] = system: Yersinia pestis; details: expected efficacy against Yersinia pestis
[56] = system: Corynebacterium urealyticum; test: Expected efficacy of antibiotic agents; details: expected efficacy against Corynebacterium urealyticum
[57] = system: Candida species; test: Expected efficacy of antifungal agents; details: expected efficacy against Candida species

CC[C@H]1OC(=O)[C@H](C)[C@@H](O[C@H]2C[C@@](C)(OC)[C@@H](O)[C@H](C)O2)[C@H](C)[C@@H](O[C@@H]2O[C@H](C)C[C@H](N(C)C)[C@H]2O)[C@](C)(O)C[C@@H](C)CN(C)[C@H](C)[C@@H](O)[C@]1(C)O [Azithromycin]
Efficacy [1]: no | Efficacy [2]: no | Efficacy [3]: no | Efficacy [4]: yes | Efficacy [5]: yes | Efficacy [6]: yes | Efficacy [7]: yes | Efficacy [8]: no | Efficacy [9]: no | Efficacy [10]: no | Efficacy [11]: yes | Efficacy [12]: yes | Efficacy [13]: no | Efficacy [14]: yes | Efficacy [15]: no | Efficacy [16]: no | Efficacy [17]: no | Efficacy [18]: no | Efficacy [19]: no | Efficacy [20]: no | Efficacy [21]: no | Efficacy [22]: yes | Efficacy [23]: no | Efficacy [24]: no | Efficacy [25]: no | Efficacy [26]: yes | Efficacy [27]: yes | Efficacy [28]: no | Efficacy [29]: yes | Efficacy [30]: no | Efficacy [31]: no | Efficacy [32]: no | Efficacy [33]: no | Efficacy [34]: no | Efficacy [35]: no | Efficacy [36]: yes | Efficacy [37]: no | Efficacy [38]: yes | Efficacy [39]: no | Efficacy [40]: no | Efficacy [41]: no | Efficacy [42]: no | Efficacy [43]: yes | Efficacy [44]: yes | Efficacy [45]: yes | Efficacy [46]: yes | Efficacy [47]: yes

C/C(=C\C(=O)OCCCCCCCCC(=O)O)C[C@@H]1OC[C@H](C[C@@H]2O[C@H]2[C@@H](C)[C@H](C)O)[C@@H](O)[C@H]1O [Bactroban]
Efficacy [3]: no | Efficacy [8]: no | Efficacy [9]: no | Efficacy [10]: no | Efficacy [11]: no | Efficacy [12]: no | Efficacy [13]: no | Efficacy [14]: no | Efficacy [15]: no | Efficacy [16]: no | Efficacy [17]: no | Efficacy [18]: no | Efficacy [19]: no | Efficacy [20]: no | Efficacy [21]: no | Efficacy [48]: no | Efficacy [22]: no | Efficacy [23]: no | Efficacy [24]: no | Efficacy [25]: no | Efficacy [26]: no | Efficacy [27]: no | Efficacy [28]: no | Efficacy [49]: no | Efficacy [29]: no | Efficacy [30]: no | Efficacy [31]: no | Efficacy [32]: no | Efficacy [33]: no | Efficacy [34]: no | Efficacy [35]: no | Efficacy [36]: no | Efficacy [50]: no | Efficacy [37]: no | Efficacy [51]: no | Efficacy [52]: no | Efficacy [53]: no | Efficacy [54]: no | Efficacy [38]: no | Efficacy [55]: no | Efficacy [39]: no | Efficacy [56]: no | Efficacy [42]: yes | Efficacy [43]: yes | Efficacy [47]: yes

C[C@@H]1[C@H](O)[C@@H](C)/C=C/C=C/CC/C=C/C=C/C=C/C=C/C(O[C@H]2O[C@H](C)[C@@H](O)[C@H](N)[C@@H]2O)CC2O[C@](O)(CC(O)C(O)CCC(O)CC(O)CC(O)CC(=O)O[C@H]1C)CC(O)C2C(=O)O (stereo partly drawn) [Nystatin, nystatin]
Efficacy [57]: yes
